Assays:
Format in all cases: biochemical
[1] = system: xanthine oxidase; experiment: Xanthine oxidase test (superoxide radicals detected with luminol, luminol + microperoxidase or NBT); conditions: sample concentration 0.3 % b.w., average of 2 measurements; for Test with xanthan oxidase, inhibition, NBT: optical density at 490 nm
From the text: In the next test, the radical-trapping properties of the test samples were investigated using xanthine oxidase as the test system. Under oxidative stress, the enzyme converts purine bases, for example, adenine or guanine, into uric acid with intermediate formation of oxygen radicals which are spontaneously decomposed into H2O2 and oxygen by Superoxid-Dismutase (SOD). These Superoxid radicals can be detected and quantitatively determined by reaction with luminol or luminol and microperoxidase and by NBT via the luminescence and the optical density at 490 nm. The luminescence yield diminishes in the presence of substances with radical-trapping properties. The concentration of the test samples has been at 0.3 % b.w. again. The results are set out in Table 3 where the inhibition is shown in % absolute ("Luminol Test"). Table 3 Test with xanthan oxidase in % absolute (results are averages of 2 measurements)

[2] = Deoxyribose oxidation by hydroxyl radicals (thiobarbituric acid, 532 nm), with or without EDTA; conditions: sample concentration 0.3 % b.w., average of 2 measurements
Method: In the following test, deoxyribose was used as the test substance. In the presence of hydroxyl radicals formed from H2O2 in the presence of Fe^2+ and EDTA, deoxyribose is oxidized. A pink-coloured substance is formed from the oxidized form by condensation with thiobarbituric acid. The optical density was determined at 532 nm and is dependent on the content of oxidized deoxyribose. A radical-trapping substance reacts with the hydroxyl radicals formed and reduces the formation of pink-coloured substances in this reaction mixture. In addition, the same reaction was carried out without EDTA to investigate complexing properties of the extract with Fe^2+ ions. The concentration of the samples has been again 0.3 % b.w. Table 2 Radical-trapping properties with desoxyribose in % absolute (results are averages of 2 measurements)

[3] = Salicylic Acid Test (hydroxylation of salicylic acid by hydroxyl radicals, 490 nm); conditions: sample concentration 0.3 % b.w., average of 2 measurements
Method: In a second test, the hydroxylation of salicylic acid by hydroxyl radicals (from the reaction of hydrogen peroxide with iron(III) ions and EDTA) was investigated as a reference system. This reaction can also be photometrically investigated because the hydroxylation product is reddish in colour. The influence of the extracts on the formation of hydroxysalicylic acid was measured at an optical density of 490 nm. The results are also set out in Table 1 where inhibition is again shown in % absolute ("Salicylic Acid Test"). Table 1 Radical-trapping properties in % absolute (results are averages of 2 measurements)

[4] = DPPH Test (radical trapping, photometric at 513 nm); conditions: Batch A; sample concentration 0.3 % b.w.; average of 2 measurements
From the text: In a first series of tests, the effectiveness of the extracts against oxidative stress was investigated by chemical methods. A commercially available extract of tomatoes, CLA (Tonalin® CLA, Cognis) and their mixtures were used in concentrations of 0.3 % b.w. The first test substrate selected was diphenyl picryl hydrazyl (DPPH), a purple-red coloured stable radical which changes into its colourless leuco derivative on contact with radical trappers. The change of colour was followed photometrically at 513 nm. The test results are set out in Table 1 ("DPPH Test") where the inhibition of DPPH is shown in % absolute.

conjugated linoleic acid [C2]
Test with xanthan oxidase, inhibition, Luminol + Microperoxidase ([1]; Batch A): 5 % absolute
Test with xanthan oxidase, inhibition, Luminol + Microperoxidase ([1]; Batch B): 7 % absolute
Test with xanthan oxidase, inhibition, Luminol ([1]; Batch A): 3 % absolute
Test with xanthan oxidase, inhibition, Luminol ([1]; Batch B): 3 % absolute
Test with xanthan oxidase, inhibition, NBT ([1]; Batch A): 1 % absolute
Test with xanthan oxidase, inhibition, NBT ([1]; Batch B): 1 % absolute
Radical-trapping properties with desoxyribose, Reaction with EDTA ([2]; Batch A): 1 % absolute
Radical-trapping properties with desoxyribose, Reaction with EDTA ([2]; Batch B): 0 % absolute
Radical-trapping properties with desoxyribose, Reaction without EDTA ([2]; Batch A): 0 % absolute
Radical-trapping properties with desoxyribose, Reaction without EDTA ([2]; Batch B): 0 % absolute
Salicylic Acid Test, inhibition ([3]; Batch A): 5 % absolute
Salicylic Acid Test, inhibition ([3]; Batch B): 5 % absolute
DPPH Test, inhibition of DPPH [4]: 18 % absolute

Reference: patent EP1618800A1, “Active compositions comprising lycopene, cytidin and fatty acids” (Cognis IP Management GmbH, priority 2004, dated 2006)
